Assay results reported in patent US8134010B2, “Thiazole-based nitric oxide donors having aryl substituent(s) and uses thereof” (priority 2004, dated 2012).
Entries after “also recorded” stand apart in the source; their conditions may differ.

Experiments:
[1] = test system: c-GMP in slices of thoracic aorta of rats; assay: Cyclic-GMP measurement in aortic rat tissue (radioimmunoassay); type: cell-based; settings: for accumulation of cyclic-GMP as compared with GTN: isolated rat aorta, radioimmunoassay; for cGMP Post-infusion: post-infusion (repeated treatment)
Method: GTN (10^−6 M) was added to the chamber and, 1 minute after exposure to the drug, rings (usually 3-5) were taken, wrapped with aluminum foil and immediately frozen in liquid nitrogen for storage. Control sample group was treated with the vehicle solution only. At the time of analysis, rings were thawed, blotted over a dry gauzed and weighted. A known weight of tissue was homogenized in 2 ml ice-cold modified Hank's balanced salt solution containing (in gram/liter) NaCl 8; KCl 0.4; glucose 1; KH2PO4 0.06; Na2HPO4 0.047; Phenol red 0.017 and further containing 25 mM EDTA (disodium salt). The homogenate was centrifuged at 4000 g (force units) for 10 minutes at 2-4° C. and the supernatant was thereafter transferred into fresh pre-cooled test tube containing 1 ml of acetonitrile. The tubes were vortex mixed for a few seconds and subsequently centrifuged at 4000 g for 5 minutes at 2-4° C., to remove the precipitated protein. Each supernatant was transferred into a clean test tube and evaporated to dryness under a stream of nitrogen at 55° C. The dry residue was reconstituted with 10 volumes of Tris-EDTA buffer pH 7.5 (0.05 M Tris containing 4 mM EDTA). Aliquots of 100 μl of the reconstituted solution in duplicate were used for c-GMP measurements using Amersham RIA kit, as is described in Haj-Yehia & Benet [Pharmacology, 1995, 273, 1, pp. 94-100]. Standard curves were plotted with six concentrations (0, 0.5, 1, 2, 4 and 8 pmoles of c-GMP per tube).
The NO-tolerance effect of GTN and NO-donor compounds according to the present invention was measured by following the production of c-GMP in slices of thoracic aorta of rats. Thus, the production of c-GMP was measured as described in the methods section above for the reference NO-donor compound GTN, and for the NO-donors of the present invention Pet-2, Pet-3, Pet-7, Pet-8, Pet-10, Pet-12, Pet-24, Pet-59, Pet-106, Pet-107, Pet-120, Pet-147, Pet-149, Pet-152, Pet-154 and Pet-155.

isolated rat aorta [2] = assay: In vitro induction of tolerance to NO releasing compounds (vasorelaxation of pre-exposed aortic rings); type: cell-based; settings: rings pre-treated with epinephrine and then with 0.44 mM of the same compound
Method: Aortic rings were prepared as described hereinabove, and were exposed to 0.44 mM GTN (vehicle was water:ethanol:propyleneglycol at proportional ratio of 1:1:1) for 1 hour before CCRC construction, to thereby induce tolerance to nitroglycerine. At the end of the tolerance induction period, rings were thrice washed with the path buffer (Krebs-bicrbonate) every 15 minutes for the following hour and then CCRC for vasorelaxation on GTN-induced tolerance rings were constructed for GTN (pretreated versus untreated rings, FIG. 15), in order to verify the ability to induce and measure GTN tolerance induction in vitro
Attempted induction of tolerance to the NO-donating compounds of the present invention was performed under the same conditions as for GTN. Thus, in an exemplary experiment, rings were exposed to 0.44 mM solution of Pet-3 in the attempt to induce tolerance for Pet-3. CCRC were then measured for the vasorelaxing effect of Pet-3 on a group of rings which were pre-exposed to Pet-3 as to induce tolerance to Pet-3, and for an untreated control group. The above protocol was repeated with Pet-2, Pet-7, Pet-8, Pet-12, Pet-24, Pet-43, Pet-149 and Pet-152.

[3] = test system: cyclic-GMP in isolated aorta of rats; assay: Induction of in vivo nitrate tolerance (cGMP in isolated aorta of rats pre-treated in vivo); set-up: species or system rat; settings: rats pre-treated in vivo with the same compound
Method: For c-GMP levels and tolerance development, the rat's thoracic aorta was isolated after exposure to the tested compound in vivo, and measured as described above in the in vitro assays.
Male Sprague Dawley rats (220 to 250 grams) were housed under constant temperature and humidity conditions. Light was maintained at a 12/12 light dark cycle. Except for 12 hours before the experiment, when food fasting was initiated, all rats had free access to standard rat pellet diet and tap water. The animals were anesthetized by intraperitoneal injection of ketamine and xylazine combination (50 and 10 milligram per kilogram, respectively). […] The catheters were filled with normal saline solution containing 1000 IU/ml of heparin and plugged with a metal pin. Catheters were externalized to the back of the neck region and secured by a polyester felt disk.
After implantation, the rats were individually housed until they regained their preoperative weight and appeared healthy (3 to 4 days post-operation). At this time point (day 0), an osmotic mini-pump (Alza Corp., Palo Alto, Calif.) delivering constant volume (10 μl/hour) of vehicle or drug was connected to one of the intravenous catheters.
For inducing tolerance to the tested NO-donor according to the present invention, the animals received 200 μg/hour of the tested compound for 16 hours (short-term-induced tolerance). A similar number of animals were processed by the same surgical procedure and received the vehicle alone (10 μl/hour of a solution consisting of 30% ethanol and 30% propylene glycol in sterile distilled water for injection).
At the end of the infusion periods used for the development of tolerance (16 hour), the rats were anesthetized as described above, the two catheters were externalized and the delivering catheters were disconnected from the mini-pump. The abdomen was opened by midline incision and the thoracic aorta were isolated, washed and cleaned from the surrounding tissues. […]

[4] = test system: hypertensive Sprague-Dawley male rats; assay: Hypotensive effects: mean arterial pressure during intravenous bolus doses; type: in vivo, rat; settings: for activity as hypotensive agents (MAP): rats given phenylephrine
Method: Mean arterial pressure (MAP) was monitored and determined during bolus infusion of Pet-2, Pet-3, Pet-7, Pet-8, Pet-12 and Pet-13. Briefly, polyethylene catheters (PE50) were inserted into the carotid artery and into the jugular vein of anesthetized hypertensive Sprague-Dawley male rats (200-300 grams). A blood pressure recorder was placed within the carotid artery. Phenylephrine (0.1 mg) was then injected and the mean arterial blood pressure (MABP) was monitored continuously until a stable baseline was reached. The hypotensive effects of intravenous (iv) bolus doses (0.1 mg of each tested compound) administered intravenously at the jugular vein in minimal volume of vehicle (0.2 ml per dose) were evaluated. Five minutes were allowed between each dose, during which the maximal decrease in MAP was recorded and a dose-response graph comparing the hypotensive effect of the compounds was constructed.

isolated rat aorta [5] = assay: Cross-tolerance studies on aortic rings (GTN / Pet-12 pre-treatment); type: cell-based
Method: Cross-tolerance studies were conducted using the same technique described above for measuring vasorelaxation of aortic rings from rats. Two groups of aortic rings samples were pre-treated with GTN, then one group was measured for vasorelaxation by GTN and the second group for vasorelaxation by Pet-12, an exemplary NO-donor according to the present invention. For the opposite cross-tolerance studies, two groups of aortic rings samples were pre-treated with Pet-12, then one group was measured for vasorelaxation by GTN and the second group for vasorelaxation by Pet-12.

SMILES | accumulation of cyclic-GMP as compared with GTN [1] | tolerance induction in vitro (vasorelaxation, pre-treated versus control rings) (isolated rat aorta [2]) | other results
Cc1nc(NC(=O)[C@@H](C)c2ccc(CC(C)C)cc2)sc1CCO[N+](=O)[O-] (stereo in doubt) [Pet-152, 2-(4-Isobutyl-phenyl)-N-[4-methyl-5-(2-nitrooxy-ethyl)-thiazol-2-yl]-propionamide] | increased levels of cGMP | – | –
O=[N+]([O-])OCC(CO[N+](=O)[O-])O[N+](=O)[O-] [GTN, glyceryl trinitrate, reference compound] | – | tolerance inducement caused by treatment with GTN; also recorded: causing the emergence of tolerance; also recorded: tolerance induced by treatment with GTN | c-GMP level following a repeated treatment ([1]; rat thoracic aorta): significantly reduced; tolerance induction by cyclic-GMP accumulation in aorta of rats pre-treated in vivo [3]: tolerance inducing effect; also recorded: decreased; hypotensive effect on MAP following successive administrations ([4]; successive doses): attenuation in its effect on MAP
Cc1nc(C)c(CCO[N+](=O)[O-])s1 [Pet-3, 2,4-Dimethyl-5-(2-nitrooxy-ethyl)-thiazole] | increased levels of cGMP | absence of tolerance induction | activity as hypotensive agents (MAP) [4]: high activity
Cc1nc(N(C)C)sc1CCO[N+](=O)[O-] [Pet-7, Dimethyl-[4-methyl-5-(2-nitrooxy-ethyl)-thiazol-2-yl]-amine] | increased levels of cGMP | absence of tolerance induction | activity as hypotensive agents (MAP) [4]: high activity
Cc1nc(-c2ccccc2)sc1CCO[N+](=O)[O-] [Pet-8, 4-Methyl-5-(2-nitrooxy-ethyl)-2-phenyl-thiazole] | increased levels of cGMP | – | activity as hypotensive agents (MAP) [4]: high activity
Cc1nc(N)sc1CCO[N+](=O)[O-] [Pet-10, 4-methyl-5-(2-nitrooxy-ethyl)-thiazole-2-ylamine] | increased levels of cGMP | – | –
Cc1nc(-c2cccnc2)sc1CCO[N+](=O)[O-] [Pet-12, 3-[4-Methyl-5-(2-nitrooxy-ethyl)-thiazole-2-yl]-pyridine] | – | absence of tolerance induction | vasorelaxation in rings made tolerant to GTN (cross-tolerance) (isolated rat aorta [5]; aorta pre-treated with GTN): has no effect on the vasorelaxation capacity of Pet-12; also recorded: absence of tolerance induction effect; tolerance induction in rings pre-treated with Pet-12 (cross-tolerance) (isolated rat aorta [5]; aorta pre-treated with Pet-12, vasorelaxation by Pet-12 and GTN): does not evoke tolerance to itself not to GTN; also recorded: absence of tolerance induction effect; tolerance induction by cyclic-GMP accumulation in aorta of rats pre-treated in vivo [3]: lack of tolerance induction; also recorded: absence of tolerance induction; activity as hypotensive agents (MAP) [4]: high activity
Cc1nc(CCCCc2nc(C)c(CCO[N+](=O)[O-])s2)sc1CCO[N+](=O)[O-] [Pet-13] | – | – | activity as hypotensive agents (MAP) [4]: high activity
CNc1cncc(-c2nc(C)c(CCO[N+](=O)[O-])s2)n1 [Pet-24, Methyl-{6-[4-methyl-5-(2-nitrooxy-ethyl)-thiazol-2-yl]-pyrazin-2-yl}-amine] | increased levels of cGMP | absence of tolerance induction | –
Cc1nc(Nc2nc(C)c(CCO[N+](=O)[O-])s2)sc1CCO[N+](=O)[O-] [Pet-43, Bis-[4-methyl-5-(2-nitrooxy-ethyl)-thiazol-2-yl]-amine] | – | absence of tolerance induction | –
Cc1nc(-c2ccc(C(F)(F)F)cc2)sc1CCO[N+](=O)[O-] [Pet-59, 4-Methyl-5-(2-nitrooxy-ethyl)-2-(4-trifluoromethyl-phenyl)-thiazole] | increased levels of cGMP | – | –
Cc1nc(-c2ccc(N)cc2)sc1CCO[N+](=O)[O-] [Pet-106, 4-[4-Methyl-5-(2-nitrooxy-ethyl)-thiazol-2-yl]-phenylamine] | increased levels of cGMP | absence of tolerance induction | cGMP Post-infusion ([1]; rat thoracic aorta): 120 ± 12 pmol/g tissue
CC(=O)Nc1ccc(-c2nc(C)c(CCO[N+](=O)[O-])s2)cc1 [Pet-107, N-{4-[4-Methyl-5-(2-nitrooxy-ethyl)-thiazol-2-yl]-phenyl}-acetamide] | increased levels of cGMP | absence of tolerance induction | cGMP Post-infusion ([1]; rat thoracic aorta): 125 ± 10 pmol/g tissue
CCNc1nc(C)c(CCO[N+](=O)[O-])s1 [Pet-147, Ethyl-[4-methyl-5-(2-nitrooxy-ethyl)-thiazol-2-yl]-amine] | increased levels of cGMP | – | –
Cc1nc(Nc2cccc3ccccc23)sc1CCO[N+](=O)[O-] [Pet-149, [4-Methyl-5-(2-nitrooxy-ethyl)-thiazol-2-yl]-naphthalen-1-yl-amine] | increased levels of cGMP | absence of tolerance induction | –
Cc1nc(NC(=O)c2cccnc2)sc1CCO[N+](=O)[O-] [Pet-154, N-[4-methyl-5-(2-nitrooxy-ethyl)-thiazol-2-yl]-nicotinamide] | increased levels of cGMP | – | –
C=CCNc1nc(C)c(CCO[N+](=O)[O-])s1 [Pet-155, allyl-[4-methyl-5-(2-nitrooxy-ethyl)-thiazol-2-yl]-amine] | increased levels of cGMP | – | –
